This note sets out measurements from ChEMBL document CHEMBL3351854, “A comprehensive review on synthetic approach for antimalarial agents” (Eur J Med Chem, 2014).

Assay [1] concerns Plasmodium yoelii nigeriensis. As to the kind of experiment: Antimalarial activity against multidrug-resistant Plasmodium yoelii nigeriensis infected mouse assessed as protection at 24 mg/kg for 4 days. The assay is classed as functional.
Assay [2] has as its system Plasmodium yoelii nigeriensis. Description: Antimalarial activity against multidrug-resistant Plasmodium yoelii nigeriensis infected mouse assessed as protection at 12 mg/kg for 4 days. The assay is classed as functional.
Assay [3] deals with Plasmodium falciparum. Description: Antimalarial activity against Plasmodium falciparum by Heme-HRP assay. The assay is classed as functional, organism-based.
The subject of assay [4] is Plasmodium falciparum. Description: Antimalarial activity against Plasmodium falciparum by culture assay. The assay is classed as functional, organism-based.
Assay [5] has as its system Plasmodium falciparum. As to the kind of experiment: Antimalarial activity Plasmodium falciparum NF54. The assay is classed as functional, organism-based.

For orientation: IC50 means the concentration that gives 50% inhibition. Lower therefore signals greater potency.

Each structure is given as a SMILES string.

On to `C[C@@H]1[C@H]2CC[C@@H](C)[C@@H]3CC[C@]4(C)OO[C@@]23[C@H](C[C@H]1OC(=O)C1c2ccccc2-c2ccccc21)O4`, for which the Activity worked out at 100% in assay [1] and 80% in assay [2].
Consider `Fc1ccc(CNCCOCCOCCNc2ccnc3cc(Cl)ccc23)c(F)c1`, for which the IC50 in the assay on Plasmodium falciparum [3] amounted to 60000 nM; in the assay with Plasmodium falciparum [4], 48 nM.
In the assay on Plasmodium falciparum [5], `CCOC(=O)CC1CCC2(OCCCC2CC(=O)OCC)OO1` (stereo not given) displayed an IC50 of 160 nM.
